Laboratory results from ChEMBL document CHEMBL5331067, “Disubstituted pyrimidine-5-carboxamide derivatives as novel HIV-1 NNRTIs: Crystallographic overlay-based molecular design, synthesis, and biological evaluation” (Eur J Med Chem, 2023).

What was measured:
[1] = test system: Human immunodeficiency virus 1; test: Antiviral activity against HIV-1 IIIB infected in human MT4 cells assessed as reduction in virus induced cytopathic effect incubated for 5 days by MTT assay; format: functional, organism-based; conditions: Human immunodeficiency virus 1, IIIB, MT4, 120 h
[2] = test system: Human immunodeficiency virus 1; test: Antiviral activity against HIV-1 RES056 infected in human MT4 cells assessed as reduction in virus induced cytopathic effect incubated for 5 days by MTT assay; format: functional, organism-based; conditions: Human immunodeficiency virus 1, RES056, MT4, 120 h
[3] = Cytotoxicity against human MT4 cells assessed as cell growth inhibition incubated for 5 days by MTT assay; format: toxicity, cell-based; conditions: time 5 day
[4] = Selectivity index, ratio of CC50 for cytotoxicity against human MT4 cells assessed as reduction in cell viability to EC50 for antiviral activity against HIV-1 IIIB infected in human MT4 cells assessed as reduction in virus induced cytopathic effect; format: toxicity, cell-based; conditions: read-out: Ratio CC50/EC50
[5] = test system: Human immunodeficiency virus 1; test: Antiviral activity against NNRTI-resistant HIV-1 harboring L100I mutant infected in human MT4 cells assessed as virus-induced cytopathicity incubated for 5 days by MTT assay; format: functional, organism-based; conditions: Human immunodeficiency virus 1, MT4, 120 h
[6] = test system: Human immunodeficiency virus 1; test: Antiviral activity against NNRTI-resistant HIV-1 harboring K103N mutant infected in human MT4 cells assessed as virus-induced cytopathicity incubated for 5 days by MTT assay; format: functional, organism-based; conditions: Human immunodeficiency virus 1, MT4, 120 h
[7] = test system: Human immunodeficiency virus 1; test: Antiviral activity against NNRTI-resistant HIV-1 harboring Y181C mutant infected in human MT4 cells assessed as virus-induced cytopathicity incubated for 5 days by MTT assay; format: functional, organism-based; conditions: Human immunodeficiency virus 1, MT4, 120 h
[8] = test system: Human immunodeficiency virus 1; test: Antiviral activity against NNRTI-resistant HIV-1 harboring Y188L mutant infected in human MT4 cells assessed as virus-induced cytopathicity incubated for 5 days by MTT assay; format: functional, organism-based; conditions: Human immunodeficiency virus 1, MT4, 120 h
[9] = test system: Human immunodeficiency virus 1; test: Antiviral activity against NNRTI-resistant HIV-1 harboring E138K mutant infected in human MT4 cells assessed as virus-induced cytopathicity incubated for 5 days by MTT assay; format: functional, organism-based; conditions: Human immunodeficiency virus 1, MT4, 120 h
[10] = test system: Human immunodeficiency virus 1; test: Antiviral activity against NNRTI-resistant HIV-1 harboring F227L/V106A double mutant infected in human MT4 cells assessed as virus-induced cytopathicity incubated for 5 days by MTT assay; format: functional, organism-based; conditions: Human immunodeficiency virus 1, MT4, 120 h
[11] = Selectivity index, ratio of CC50 for cytotoxicity against human MT4 cells assessed as reduction in cell viability to EC50 for antiviral activity against NNRTI-resistant HIV-1 harboring L100I mutant infected in human MT4 cells; format: toxicity, cell-based; conditions: read-out: Ratio CC50/EC50
[12] = Selectivity index, ratio of CC50 for cytotoxicity against human MT4 cells assessed as reduction in cell viability to EC50 for antiviral activity against NNRTI-resistant HIV-1 harboring K103N mutant infected in human MT4 cells; format: toxicity, cell-based; conditions: read-out: Ratio CC50/EC50
[13] = Selectivity index, ratio of CC50 for cytotoxicity against human MT4 cells assessed as reduction in cell viability to EC50 for antiviral activity against NNRTI-resistant HIV-1 harboring Y181C mutant infected in human MT4 cells; format: toxicity, cell-based; conditions: read-out: Ratio CC50/EC50
[14] = Selectivity index, ratio of CC50 for cytotoxicity against human MT4 cells assessed as reduction in cell viability to EC50 for antiviral activity against NNRTI-resistant HIV-1 harboring Y188L mutant infected in human MT4 cells; format: toxicity, cell-based; conditions: read-out: Ratio CC50/EC50
[15] = Selectivity index, ratio of CC50 for cytotoxicity against human MT4 cells assessed as reduction in cell viability to EC50 for antiviral activity against NNRTI-resistant HIV-1 harboring E138K mutant infected in human MT4 cells; format: toxicity, cell-based; conditions: read-out: Ratio CC50/EC50
[16] = Selectivity index, ratio of CC50 for cytotoxicity against human MT4 cells assessed as reduction in cell viability to EC50 for antiviral activity against NNRTI-resistant HIV-1 harboring F227L/V106A double mutant infected in human MT4 cells; format: toxicity, cell-based; conditions: read-out: Ratio CC50/EC50
[17] = Selectivity index, ratio of CC50 for cytotoxicity against human MT4 cells assessed as reduction in cell viability to EC50 for antiviral activity against HIV-1 RES056 infected in human MT4 cells assessed as reduction in virus induced cytopathic effect; format: toxicity, cell-based; conditions: read-out: Ratio CC50/EC50
[18] = (§1) Fold resistance, ratio of EC50 for antiviral activity against NNRTI-resistant HIV-1 harboring L100I mutant infected in human MT4 cells assessed as virus-induced cytopathicity to EC50 for antiviral activity against HIV-1 IIIB infected in human MT4 cells assessed as reduction in virus induced cytopathic effect; format: functional
[19] = as §1, with “K103N” for “L100I”; format: functional
[20] = as §1, with “Y181C” for “L100I”; format: functional
[21] = as §1, with “Y188L” for “L100I”; format: functional
[22] = as §1, with “E138K” for “L100I”; format: functional
[23] = as §1, with “F227L/V106A double” for “L100I”; format: functional
[24] = as §1, with “F227L/V106A double” for “L100I”, “RES056” for “IIIB”; format: functional
[25] = molecular target: Human immunodeficiency virus type 1 reverse transcriptase (Human immunodeficiency virus 1, UniProt Q72547); test: Inhibition of wild type HIV-1 reverse transcriptase assessed as reduction of biotin-dUTP incorporation into […] using ABTS as substrate incubated for 1 hrs by ELISA analysis

SMILES | EC50 [1] | EC50 [2] | CC50 at 120 h [3] | selectivity ratio [4] | EC50 [5] | EC50 [6] | EC50 [7] | EC50 [8] | EC50 [9] | EC50 [10] | selectivity ratio [11] | selectivity ratio [12] | selectivity ratio [13] | selectivity ratio [14] | selectivity ratio [15] | selectivity ratio [16] | selectivity ratio [17] | Ratio EC50 [18] | Ratio EC50 [19] | Ratio EC50 [20] | also measured
Cc1cc(C#N)cc(C)c1Oc1nc(Nc2ccc(C#N)nc2)ncc1C(N)=O | 128 nM | > 27900 nM | 27900 nM | 218 | – | – | – | – | – | – | – | – | – | – | – | – | – | – | – | – | –
Cc1cc(C#N)cc(C)c1Oc1nc(Nc2ccc(C#N)cc2)ncc1C(N)=O | 11 nM | 8960 nM | 32200 nM | 2820 | 168 nM | 50 nM | 395 nM | 193 nM | 70 nM | 2550 nM | 192 | 650 | 82 | 167 | 459 | 13 | 4 | 14.7 | 4.3 | 34.6 | Ratio EC50 [21]: 16.9; Ratio EC50 [22]: 6.2; Ratio EC50 [23]: 223.3; Ratio EC50 [24]: 785.5; IC50 [25]: 196 nM
Cc1cc(C#N)cc(C)c1Oc1nc(NC2CCN(Cc3ccc(S(C)(=O)=O)cc3)CC2)ncc1C(N)=O | 6 nM | 3450 nM | > 234000 nM | > 41100 | 11 nM | 5 nM | 34 nM | 69 nM | 149 nM | 327 nM | > 221 | > 4460 | > 6790 | > 3400 | > 1560 | > 716 | > 68 | 1.9 | 0.9 | 6 | Ratio EC50 [21]: 12.1; Ratio EC50 [22]: 26.2; Ratio EC50 [23]: 57.4; Ratio EC50 [24]: 605.5; IC50 [25]: 122 nM
Cc1cc(C#N)cc(C)c1Oc1nc(NC2CCN(c3cccc(C(N)=O)c3)CC2)ncc1C(N)=O | 43900 nM | > 257000 nM | > 257000 nM | > 6 | – | – | – | – | – | – | – | – | – | – | – | – | – | – | – | – | –
Cc1cc(C#N)cc(C)c1Oc1nc(NC2CCN(Cc3ccc(S(N)(=O)=O)cc3)CC2)ncc1C(N)=O | 46 nM | 6120 nM | 198000 nM | 4300 | 209 nM | 62 nM | 295 nM | 234 nM | 291 nM | 439 nM | 946 | 3180 | 671 | 847 | 680 | 451 | 32 | 4.5 | 1.3 | 6.4 | Ratio EC50 [21]: 5.1; Ratio EC50 [22]: 6.3; Ratio EC50 [23]: 9.5; Ratio EC50 [24]: 132.9; IC50 [25]: 163 nM
O=C1Nc2ccc(Cl)cc2[C@@](C#CC2CC2)(C(F)(F)F)O1 [EFAVIRENZ] | – | – | > 6350 nM | – | – | – | – | – | – | – | – | – | – | – | – | – | – | – | – | – | –
Cc1cc(C#N)cc(C)c1Oc1nc(Nc2ccc(C#N)cc2)nc(N)c1Br [ETRAVIRINE] | – | 61 nM | > 4600 nM | – | – | – | – | – | 10 nM | – | – | – | – | – | – | – | – | – | – | – | –
Cc1ccnc2c1NC(=O)c1cccnc1N2C1CC1 [NEVIRAPINE] | 151 nM | > 15000 nM | > 15000 nM | – | – | – | – | – | 168 nM | – | – | – | – | – | – | – | – | – | – | – | –
